The source of these data is article PMC8621570, “Mechanistic Studies of Antibiotic Adjuvants Reducing Kidney’s Bacterial Loads upon Systemic Monotherapy” (Pharmaceutics, 2021).

Holding throughout (experiment): Sensitization to rifampin, checkerboard method
Holding throughout (assay type): cell-based

The subject of test [1] is Acinetobacter baumannii 19606. The note with it: adjuvant at 8 µg/mL (10 µM for C14(ω5)OOc10O), Ab 19606, LB. On the procedure:
(§1) Bacterial sensitization: Sensitization to antibiotics was determined using the checkerboard method in presence of sub-MIC OAC (2.5, 5, and 10 μM), as described. The synergistic effect of the combinations was expressed in terms of the Sensitization Factor (SF), where SF = (MIC antibiotic alone)/(MIC antibiotic upon combination). Data were obtained from three independent assays performed in duplicate.
(§2) Figure 4 Hydrophobicity dependence of antibiotics potentiation by lipopeptide analogs. Sensitization of GNB to rifampin and erythromycin (upper and lower panel, respectively) was assessed by MIC experiments performed in LB medium, in presence or absence of an OAC analog whose A2 position was gradually shortened (from c10 to c6). Pseudomonas aeruginosa 27853 (Pa, blue), Klebsiella pneumoniae 1287 (Kp, green), Escherichia coli 25922 (Ec, red), and Acinetobacter baumannii 19606 (Ab, black).

Test [2] concerns Escherichia coli 25922. The note with it: adjuvant at 8 µg/mL (10 µM for C14(ω5)OOc10O), Ec 25922, LB. On the procedure: as §1, §2
Test [3] relates to Pseudomonas aeruginosa 27853. Particulars: adjuvant at 8 µg/mL (10 µM for C14(ω5)OOc10O), Pa 27853, LB. On the procedure: as §1, §2
For test [4], the system named is Klebsiella pneumoniae. The note with it: adjuvant at 8 µg/mL (10 µM for C14(ω5)OOc10O), Kp, LB. As to the method:
as §1, §2

With `CCCCC=CCCCCCCCC(=O)N[C@@H](CCCN)C(=O)N[C@@H](CCCN)C(=O)NCCCCCCCCCC(=O)N[C@@H](CCCN)C(N)=O` [C14(ω5)OOc10O], the “Sensitization factor (rifampin MIC alone)/(rifampin MIC in combination)” value in test [1] was 4000; in test [2], 32,000; in test [3], 32,000; in test [4] it was 64,000.
